In test [1] the target is T1, NanH-D237A (Tannerella forsythia, UniProt G8UIQ1, D224A).
T1 construct: gene BFO_2207; C-terminally hexahistidine-tagged NanH
T1 sequence (G8UIQ1 21-539 D224A): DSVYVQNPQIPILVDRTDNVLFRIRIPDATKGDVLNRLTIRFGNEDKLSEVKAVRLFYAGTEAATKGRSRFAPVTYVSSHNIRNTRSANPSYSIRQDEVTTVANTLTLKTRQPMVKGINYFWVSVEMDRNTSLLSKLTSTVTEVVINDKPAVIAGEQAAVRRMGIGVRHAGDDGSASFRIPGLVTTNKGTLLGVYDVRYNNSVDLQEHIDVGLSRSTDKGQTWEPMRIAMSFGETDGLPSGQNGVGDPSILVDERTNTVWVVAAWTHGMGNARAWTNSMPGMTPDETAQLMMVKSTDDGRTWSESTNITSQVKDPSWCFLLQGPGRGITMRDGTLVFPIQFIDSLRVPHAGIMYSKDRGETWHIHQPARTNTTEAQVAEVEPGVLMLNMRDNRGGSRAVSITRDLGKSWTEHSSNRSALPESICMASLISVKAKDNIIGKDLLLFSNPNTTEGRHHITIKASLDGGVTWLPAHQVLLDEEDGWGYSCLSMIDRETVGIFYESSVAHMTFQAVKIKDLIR
Nature of the test: crystal structure ([…] soak, […] Å) and tryptophan fluorescence quenching. Format: binding.

For test [2], the target named is T1, NanH-D237A. Described as above. It is filed as binding. This is another data set of the same source.

Like-named read-outs stand apart in the source and are kept apart here.

For `CC(=O)N[C@H]1[C@H]([C@H](O)[C@H](O)CO)O[C@@](O[C@H]2[C@@H](O)[C@@H](CO)O[C@@H](O[C@H]3[C@H](O)[C@@H](O)C(O)O[C@@H]3CO)[C@@H]2O)(C(=O)O)C[C@@H]1O` (some centres unmarked) [3-SL], binding in test [1] was characterised by a dissociation constant (Kd) of 305 ± 91.5 µM.
For the compound `CC(=O)N[C@H]1[C@H]([C@H](O)[C@H](O)CO)O[C@@](OC[C@H]2O[C@@H](O[C@H]3[C@H](O)[C@@H](O)C(O)O[C@@H]3CO)[C@H](O)[C@@H](O)[C@H]2O)(C(=O)O)C[C@@H]1O` (some centres unmarked) [6-SL], the Kd (usually a measure of binding affinity in units of concentration) in test [2] stood at 133 ± 48.3 µM.

The record behind these values is PMC9472817, “Structural and functional characterisation of a stable, broad-specificity multimeric sialidase from the oral pathogen Tannerella forsythia” (Biochemical Journal, 2022).
